Toxic doses and inconclusive results are not listed. How the source made its calls: active means survival T/C of 150% or more; inactive means T/C below 125% in these data.
System: CD2F1 mice, L1210 leukemia ip, survival T/C
Assay: NCI In Vivo Anticancer Drug Screen. Data for tumor model L1210 Leukemia (intraperitoneal) in CD2F1 (CDF1) mice
Details: higher = longer survival
Outline: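 In this screen, transplantable tumors were grown in mice given either the compound or its vehicle. Results were expressed as the treated measurement relative to the control measurement.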

[1] = endpoint: mean survival time, dose: 100.0 mg/kg/injection, schedule: Q04DX003 (ip), vehicle: saline
[2] = endpoint: mean survival time, dose: 200.0 mg/kg/injection, schedule: Q04DX003 (ip), vehicle: saline
[3] = endpoint: mean survival time, dose: 400.0 mg/kg/injection, schedule: Q04DX003 (ip), vehicle: saline
[4] = endpoint: mean survival time, dose: 100.0 mg/kg/injection, schedule: Q01DX001 (ip), vehicle: saline with Tween-80
[5] = endpoint: mean survival time, dose: 100.0 mg/kg/injection, schedule: Q01DX009 (ip), vehicle: saline with Tween-80
[6] = endpoint: mean survival time, dose: 200.0 mg/kg/injection, schedule: Q01DX001 (ip), vehicle: saline with Tween-80
[7] = endpoint: mean survival time, dose: 200.0 mg/kg/injection, schedule: Q01DX009 (ip), vehicle: saline with Tween-80
[8] = endpoint: mean survival time, dose: 400.0 mg/kg/injection, schedule: Q01DX001 (ip), vehicle: saline with Tween-80
[9] = endpoint: mean survival time, dose: 400.0 mg/kg/injection, schedule: Q01DX009 (ip), vehicle: saline with Tween-80
[10] = endpoint: mean survival time, dose: 50.0 mg/kg/injection, schedule: Q01DX009 (ip), vehicle: saline with Tween-80
[11] = endpoint: mean survival time, dose: 100.0 mg/kg/injection, schedule: Q04DX003 (ip), vehicle: saline with Tween-80
[12] = endpoint: mean survival time, dose: 200.0 mg/kg/injection, schedule: Q04DX003 (ip), vehicle: saline with Tween-80
[13] = endpoint: mean survival time, dose: 400.0 mg/kg/injection, schedule: Q04DX003 (ip), vehicle: saline with Tween-80

Measured: T/C

O=[N+]([O-])O.[NH-]C1CCCCC1[NH-].[NH-]C1CCCCC1[NH-].[NH-]C1CCCCC1[NH-].[OH-].[OH-].[OH-].[Pt+4].[Pt+4].[Pt+4] (configuration not stated)
inactive: endpoint: mean survival time, dose: 20.0 mg/kg/injection, schedule: Q04DX003 (ip), vehicle: water 87 % of control

CCOP(=O)(OCC)C(C)OC (configuration not stated)
inactive: [1] 97 % of control | [2] 108 % of control | [3] 97 % of control

CC(C)(CC/C(=N\Nc1ccc([N+](=O)[O-])cc1[N+](=O)[O-])c1ccccc1)C1OCCO1
inactive: endpoint: mean survival time, dose: 50.0 mg/kg/injection, schedule: Q04DX002 (ip), vehicle: saline with Tween-80 90 % of control | endpoint: mean survival time, dose: 100.0 mg/kg/injection, schedule: Q04DX002 (ip), vehicle: saline with Tween-80 98 % of control | endpoint: mean survival time, dose: 200.0 mg/kg/injection, schedule: Q04DX002 (ip), vehicle: saline with Tween-80 94 % of control

CS(=O)(=O)c1nnc(-c2ccccc2)s1
inactive: endpoint: mean survival time, dose: 100.0 mg/kg/injection, schedule: Q04DX003 (ip), vehicle: Klucel (hydroxypropylcellulose) (HPC) 90 % of control | endpoint: mean survival time, dose: 200.0 mg/kg/injection, schedule: Q04DX003 (ip), vehicle: Klucel (hydroxypropylcellulose) (HPC) 90 % of control

CC(=O)NC(C=O)C(O)C1OC(c2ccccc2)OCC1O (configuration not stated)
inactive: [4] 97 % of control | [5] 95 % of control | [6] 97 % of control | [7] 98 % of control | [8] 94 % of control | [9] 92 % of control

CN(C)C/C(=N\Oc1ccc([N+](=O)[O-])cc1[N+](=O)[O-])c1ccc(Cl)cc1
inactive: [10] 91 % of control | [4] 98 % of control | [5] 88 % of control | [6] 102 % of control | [7] 91 % of control | [8] 95 % of control

CSCCC(NC(C)=O)C(=O)O.CSCCC(NC(C)=O)C(=O)O.[NH-]C1CCCCC1[NH-].[Pt+2] (configuration not stated)
inactive: endpoint: median survival time, dose: 3.12 mg/kg/injection, schedule: Q04DX003 (ip), vehicle: saline 100 % of control | endpoint: median survival time, dose: 6.25 mg/kg/injection, schedule: Q04DX003 (ip), vehicle: saline 100 % of control | endpoint: median survival time, dose: 12.5 mg/kg/injection, schedule: Q04DX003 (ip), vehicle: saline 97 % of control | endpoint: median survival time, dose: 25.0 mg/kg/injection, schedule: Q04DX003 (ip), vehicle: saline 107 % of control | endpoint: median survival time, dose: 50.0 mg/kg/injection, schedule: Q04DX003 (ip), vehicle: saline 93 % of control | endpoint: median survival time, dose: 100.0 mg/kg/injection, schedule: Q04DX003 (ip), vehicle: saline 98 % of control | endpoint: median survival time, dose: 200.0 mg/kg/injection, schedule: Q04DX003 (ip), vehicle: saline 97 % of control

C=C1CC(Cc2ccccc2)OC1=O (configuration not stated)
inactive: endpoint: mean survival time, dose: 25.0 mg/kg/injection, schedule: Q01DX001 (ip), vehicle: saline with Tween-80 96 % of control | endpoint: mean survival time, dose: 50.0 mg/kg/injection, schedule: Q01DX001 (ip), vehicle: saline with Tween-80 101 % of control | [4] 101 % of control

OC(c1ccccc1)(C1SCCCS1)C1SCCCS1
inactive: [10] 94 % of control | [5] 97 % of control | [7] 94 % of control

N#C/C(=C\c1cc(Cl)ccc1O)C1CCC([N+](=O)[O-])CC1 (configuration not stated)
inactive: [5] 86 % of control | [7] 93 % of control | [9] 91 % of control

CCNc1cc(Cl)c(C(=O)O)cc1[N+](=O)[O-]
inactive: [1] 105 % of control | [2] 110 % of control | [3] 115 % of control

S=C(N/N=C1\C=Cc2ccccc2C1)N/N=C1\C=Cc2ccccc2C1
inactive: endpoint: mean survival time, dose: 50.0 mg/kg/injection, schedule: Q04DX003 (ip), vehicle: saline 87 % of control | [1] 93 % of control | [2] 93 % of control

Cc1cc(I)ccc1NC(=S)Nc1ccccc1F
inactive: [10] 93 % of control | [4] 100 % of control | [5] 90 % of control | [6] 96 % of control | [7] 93 % of control | [8] 96 % of control

COc1ccc(C(=O)/C(C)=C(/C)NCCC#N)c(OCc2ccccc2)c1OC
inactive: endpoint: mean survival time, dose: 12.5 mg/kg/injection, schedule: Q01DX009 (ip), vehicle: other 97 % of control | endpoint: mean survival time, dose: 25.0 mg/kg/injection, schedule: Q01DX009 (ip), vehicle: other 97 % of control | endpoint: mean survival time, dose: 50.0 mg/kg/injection, schedule: Q01DX009 (ip), vehicle: other 97 % of control | endpoint: mean survival time, dose: 100.0 mg/kg/injection, schedule: Q01DX009 (ip), vehicle: other 95 % of control | endpoint: mean survival time, dose: 200.0 mg/kg/injection, schedule: Q01DX009 (ip), vehicle: other 104 % of control

N#CC1(C2(C#N)CCCCC2)CCCCC1
inactive: endpoint: mean survival time, dose: 100.0 mg/kg/injection, schedule: Q01DX001 (ip), vehicle: Klucel (hydroxypropylcellulose) (HPC) 116 % of control | endpoint: mean survival time, dose: 200.0 mg/kg/injection, schedule: Q01DX001 (ip), vehicle: Klucel (hydroxypropylcellulose) (HPC) 92 % of control | endpoint: mean survival time, dose: 400.0 mg/kg/injection, schedule: Q01DX001 (ip), vehicle: Klucel (hydroxypropylcellulose) (HPC) 100 % of control

NC(=O)c1ccc[n+](CCN(CCCl)c2ccc3ccccc3c2)c1
inactive: endpoint: mean survival time, dose: 1.25 mg/kg/injection, schedule: Q01DX009 (ip), vehicle: Klucel (hydroxypropylcellulose) (HPC) 104 % of control | endpoint: mean survival time, dose: 2.5 mg/kg/injection, schedule: Q01DX009 (ip), vehicle: Klucel (hydroxypropylcellulose) (HPC) 107 % of control | endpoint: mean survival time, dose: 5.0 mg/kg/injection, schedule: Q01DX009 (ip), vehicle: Klucel (hydroxypropylcellulose) (HPC) 102 % of control

COC(CCCl)c1ccc(Cl)cc1 (configuration not stated)
inactive: endpoint: mean survival time, dose: 50.0 mg/kg/injection, schedule: Q01DX009 (ip), vehicle: saline 96 % of control | endpoint: mean survival time, dose: 100.0 mg/kg/injection, schedule: Q01DX009 (ip), vehicle: saline 96 % of control | [11] 96 % of control | endpoint: mean survival time, dose: 200.0 mg/kg/injection, schedule: Q01DX009 (ip), vehicle: saline 98 % of control | [12] 87 % of control

O=C(Nc1nc2ccccc2s1)c1cc2ccccc2cc1O
inactive: [11] 87 % of control | [12] 98 % of control | [13] 91 % of control

Cc1cccc(N/N=C2\CCSc3ccccc32)c1
inactive: [4] 100 % of control | [6] 100 % of control | [8] 103 % of control

NCC(OCC(=O)O)C(Cl)(Cl)Cl (configuration not stated)
inactive: [11] 101 % of control | [12] 96 % of control | [13] 101 % of control

CCCCCCCCCCCCCCCCCCC#N
inactive: [5] 100 % of control | [11] 92 % of control | [7] 96 % of control | [12] 98 % of control | [9] 93 % of control | [13] 95 % of control

O=C1CCCCCC2=NC12 (configuration not stated)
inactive: endpoint: median survival time, dose: 6.25 mg/kg/injection, schedule: Q01DX009 (ip), vehicle: Klucel (hydroxypropylcellulose) (HPC) 97 % of control | endpoint: median survival time, dose: 12.5 mg/kg/injection, schedule: Q01DX009 (ip), vehicle: Klucel (hydroxypropylcellulose) (HPC) 102 % of control | endpoint: median survival time, dose: 25.0 mg/kg/injection, schedule: Q01DX009 (ip), vehicle: Klucel (hydroxypropylcellulose) (HPC) 105 % of control | endpoint: median survival time, dose: 50.0 mg/kg/injection, schedule: Q01DX009 (ip), vehicle: Klucel (hydroxypropylcellulose) (HPC) 111 % of control

CCCCCCCC(=O)NC1CCC(C(C)(C)C)CC1 (configuration not stated)
inactive: endpoint: mean survival time, dose: 100.0 mg/kg/injection, schedule: Q04DX003 (ip), vehicle: other 93 % of control | endpoint: mean survival time, dose: 200.0 mg/kg/injection, schedule: Q04DX003 (ip), vehicle: other 94 % of control | endpoint: mean survival time, dose: 400.0 mg/kg/injection, schedule: Q04DX003 (ip), vehicle: other 89 % of control

COC(=O)C(CS)NC(=O)CCNC(=O)OCc1ccccc1 (configuration not stated)
inactive: endpoint: mean survival time, dose: 12.5 mg/kg/injection, schedule: Q01DX009 (ip), vehicle: sodium bicarbonate 100 % of control | endpoint: mean survival time, dose: 25.0 mg/kg/injection, schedule: Q01DX009 (ip), vehicle: sodium bicarbonate 96 % of control | endpoint: mean survival time, dose: 50.0 mg/kg/injection, schedule: Q01DX009 (ip), vehicle: sodium bicarbonate 91 % of control | endpoint: mean survival time, dose: 100.0 mg/kg/injection, schedule: Q01DX009 (ip), vehicle: sodium bicarbonate 93 % of control | endpoint: mean survival time, dose: 200.0 mg/kg/injection, schedule: Q01DX009 (ip), vehicle: sodium bicarbonate 88 % of control

CCn1c(C)[n+](CC)c2ccc(C(F)(F)F)cc21
inactive: endpoint: mean survival time, dose: 75.0 mg/kg/injection, schedule: Q01DX001 (ip), vehicle: saline 94 % of control | endpoint: mean survival time, dose: 150.0 mg/kg/injection, schedule: Q01DX001 (ip), vehicle: saline 100 % of control

NCCN1CCc2ccccc2C1
inactive: endpoint: mean survival time, dose: 6.25 mg/kg/injection, schedule: Q04DX003 (ip), vehicle: saline 101 % of control | endpoint: mean survival time, dose: 12.5 mg/kg/injection, schedule: Q04DX003 (ip), vehicle: saline 106 % of control | endpoint: mean survival time, dose: 25.0 mg/kg/injection, schedule: Q04DX003 (ip), vehicle: saline 101 % of control

Reference: PubChem BioAssay AID256 (DTP/NCI, 2004)
